Laboratory results reported in the NIST ThermoML archive (doi:10.1021/je020159m).
Numbers after ± are expanded uncertainties.

Key:
[1] = excess molar enthalpy (molar enthalpy of mixing); xn = mol fraction of the nth substance listed; settings: 298.15 K, 101.33 kPa, Liquid, Flow calorimetry
[2] = 298.15 K; 101.33 kPa; Liquid; Vibrating tube method

For C1CCOC1 [tetrahydrofuran] + CCCCCC, the excess molar enthalpy ([1]; x1 = 0.05) was 0.0362 ± 0.000574 kcal/mol, the excess molar enthalpy ([1]; x1 = 0.1) was 0.0678 ± 0.000789 kcal/mol and the excess molar enthalpy ([1]; x1 = 0.1499) was 0.0942 ± 0.001 kcal/mol. The excess molar enthalpy ([1]; x1 = 0.2001) was 0.118 ± 0.0012 kcal/mol, the excess molar enthalpy ([1]; x1 = 0.25) was 0.1371 ± 0.00134 kcal/mol and the excess molar enthalpy ([1]; x1 = 0.2998) was 0.1538 ± 0.00148 kcal/mol. It also gave an excess molar enthalpy ([1]; x1 = 0.3503) of 0.1645 ± 0.00158 kcal/mol, an excess molar enthalpy ([1]; x1 = 0.4003) of 0.1733 ± 0.00165 kcal/mol and an excess molar enthalpy ([1]; x1 = 0.4504) of 0.1788 ± 0.0017 kcal/mol. The excess molar enthalpy ([1]; x1 = 0.5005) was 0.1794 ± 0.0017 kcal/mol, the excess molar enthalpy ([1]; x1 = 0.5508) was 0.1793 ± 0.0017 kcal/mol and the excess molar enthalpy ([1]; x1 = 0.6003) was 0.1743 ± 0.00165 kcal/mol. The excess molar enthalpy ([1]; x1 = 0.6503) was 0.1663 ± 0.00158 kcal/mol, the excess molar enthalpy ([1]; x1 = 0.7002) was 0.1544 ± 0.00148 kcal/mol and the excess molar enthalpy ([1]; x1 = 0.75) was 0.1389 ± 0.00136 kcal/mol. The excess molar enthalpy ([1]; x1 = 0.8015) was 0.119 ± 0.0012 kcal/mol, the excess molar enthalpy ([1]; x1 = 0.8501) was 0.0947 ± 0.001 kcal/mol and the excess molar enthalpy ([1]; x1 = 0.8998) was 0.0693 ± 0.000813 kcal/mol. The excess molar enthalpy ([1]; x1 = 0.9499) was 0.0365 ± 0.000574 kcal/mol.
Molecule C1CCOC1 [tetrahydrofuran] + CCCCCCCCCC has an excess molar enthalpy ([1]; x1 = 0.05) of 0.0371 ± 0.000598 kcal/mol, an excess molar enthalpy ([1]; x1 = 0.0999) of 0.0724 ± 0.000837 kcal/mol and an excess molar enthalpy ([1]; x1 = 0.15) of 0.104 ± 0.00108 kcal/mol. The excess molar enthalpy ([1]; x1 = 0.2) was 0.1308 ± 0.00129 kcal/mol, the excess molar enthalpy ([1]; x1 = 0.2503) was 0.1543 ± 0.00151 kcal/mol and the excess molar enthalpy ([1]; x1 = 0.3) was 0.1748 ± 0.00167 kcal/mol. It also gave an excess molar enthalpy ([1]; x1 = 0.3498) of 0.1922 ± 0.00182 kcal/mol, an excess molar enthalpy ([1]; x1 = 0.4002) of 0.2066 ± 0.00194 kcal/mol and an excess molar enthalpy ([1]; x1 = 0.4509) of 0.2141 ± 0.00198 kcal/mol. For the same molecule, the excess molar enthalpy ([1]; x1 = 0.4999) was 0.2201 ± 0.00206 kcal/mol, the excess molar enthalpy ([1]; x1 = 0.5499) was 0.2222 ± 0.00206 kcal/mol and the excess molar enthalpy ([1]; x1 = 0.6002) was 0.2203 ± 0.00206 kcal/mol. It also gave an excess molar enthalpy ([1]; x1 = 0.6501) of 0.2133 ± 0.00198 kcal/mol, an excess molar enthalpy ([1]; x1 = 0.7003) of 0.2016 ± 0.00189 kcal/mol and an excess molar enthalpy ([1]; x1 = 0.7502) of 0.185 ± 0.00174 kcal/mol. It also gave an excess molar enthalpy ([1]; x1 = 0.8003) of 0.1621 ± 0.00158 kcal/mol, an excess molar enthalpy ([1]; x1 = 0.8502) of 0.134 ± 0.00134 kcal/mol and an excess molar enthalpy ([1]; x1 = 0.9011) of 0.098 ± 0.00108 kcal/mol. For the same molecule, the excess molar enthalpy ([1]; x1 = 0.95) was 0.0545 ± 0.000765 kcal/mol.
In the case of C1CCOC1 [tetrahydrofuran], the mass density [2] is reported as 882.09 ± 0.46 kg/m3.
For C1CCOC1 [tetrahydrofuran] + C1CCCCC1, the excess molar enthalpy ([1]; x1 = 0.05) was 0.0385 ± 0.000574 kcal/mol, the excess molar enthalpy ([1]; x1 = 0.1) was 0.0709 ± 0.000813 kcal/mol and the excess molar enthalpy ([1]; x1 = 0.15) was 0.0988 ± 0.00103 kcal/mol. For the same molecule, the excess molar enthalpy ([1]; x1 = 0.2001) was 0.121 ± 0.0012 kcal/mol, the excess molar enthalpy ([1]; x1 = 0.2499) was 0.1399 ± 0.00136 kcal/mol and the excess molar enthalpy ([1]; x1 = 0.2997) was 0.1529 ± 0.00148 kcal/mol. For the same molecule, the excess molar enthalpy ([1]; x1 = 0.35) was 0.1636 ± 0.00155 kcal/mol, the excess molar enthalpy ([1]; x1 = 0.4003) was 0.1707 ± 0.00163 kcal/mol and the excess molar enthalpy ([1]; x1 = 0.4504) was 0.174 ± 0.00165 kcal/mol. It also gave an excess molar enthalpy ([1]; x1 = 0.4999) of 0.1745 ± 0.00165 kcal/mol, an excess molar enthalpy ([1]; x1 = 0.5498) of 0.1722 ± 0.00163 kcal/mol and an excess molar enthalpy ([1]; x1 = 0.6) of 0.1663 ± 0.00158 kcal/mol. For the same molecule, the excess molar enthalpy ([1]; x1 = 0.65) was 0.1569 ± 0.00151 kcal/mol, the excess molar enthalpy ([1]; x1 = 0.7003) was 0.1444 ± 0.00141 kcal/mol and the excess molar enthalpy ([1]; x1 = 0.7498) was 0.1264 ± 0.00124 kcal/mol. For the same molecule, the excess molar enthalpy ([1]; x1 = 0.8) was 0.108 ± 0.0011 kcal/mol, the excess molar enthalpy ([1]; x1 = 0.8505) was 0.0858 ± 0.000908 kcal/mol and the excess molar enthalpy ([1]; x1 = 0.9003) was 0.0599 ± 0.000717 kcal/mol. The excess molar enthalpy ([1]; x1 = 0.95) was 0.0309 ± 0.000526 kcal/mol.
In the case of CCCCCCCCCC [decane], the mass density [2] is reported as 726.37 ± 0.41 kg/m3.
In the case of CCCCCC [hexane], the mass density [2] is reported as 655.42 ± 0.4 kg/m3.
For C1CCCCC1 [cyclohexane], the mass density [2] was 773.92 ± 0.42 kg/m3.
